# Assay results as given in patent publication US7781436B2 (Hoffmann-La Roche Inc., priority 2005, dated 2010).
# Molecular target: T1, human V1a receptor (Homo sapiens, UniProt P37288)
# T1 construct: expressed in transfected cells; host or cells: HEK293 cells, transiently transfected; membranes prepared
# Test: human V1a receptor binding (3H-Vasopressin SPA, membranes of transfected HEK293 cells)
# Settings: not given
# Experimental: The human V1a receptor was cloned by RT-PCR from total human liver RNA. The coding sequence was subcloned in an expression vector after sequencing to confirm the identity of the amplified sequence. […] Cell membranes were prepared from HEK293 cells transiently transfected with the expression vector and grown in 20 liter fermenters with the following protocol.
# 50 g of cells are resuspended in 30 ml freshly prepared ice cold Lysis buffer (50 mM HEPES, 1 mM EDTA, 10 mM MgCl2 adjusted to pH=7.4+ complete cocktail of protease inhibitor (Roche Diagnostics)). Homogenized with Polytron for 1 min and sonicated on ice for 2×2 minutes at 80% intensity (Vibracell sonicator). The preparation is centrifuged 20 min at 500 g at 4° C., the pellet is discarded and the supernatant centrifuged 1 hour at 43,000 g at 4° C. (19'000 rpm). The pellet is resuspended in 12.5 ml Lysis buffer+12.5 ml Sucrose 20% and homogenized using a Polytron for 1-2 min. The protein concentration is determined by the Bradford method, and aliquots are stored at −80° C. until use. For binding studies 60 mg Yttrium silicate SPA beads (Amersham) are mixed with an aliquot of membrane in binding buffer (50 mM Tris, 120 mM NaCl, 5 mM KCl, 2 mM CaCl2, 10 mM MgCl2) for 15 minutes with mixing. 50 ul of bead/membrane mixture is then added to each well of a 96 well plate, followed by 50 ul of 4 nM 3H-Vasopressin (American Radiolabeled Chemicals). For total binding measurement 100 ul of binding buffer are added to the respective wells, for non-specific binding 100 ul of […] cold vasopressin and for compound testing 100 ul of a serial dilution of each compound in 2% DMSO. The plate is incubated 1 h at room temperature, centrifuged 1 min at 1000 g and counted on a Packard Top-Count. Non-specific binding counts are subtracted from each well, and data is normalized to the maximum specific binding set at 100%. To calculate an IC 50 the curve is fitted using a non-linear regression model (XLfit) and the Ki is calculated using the Cheng-Prussoff equation.
# T1 sequence (P37288 whole entry): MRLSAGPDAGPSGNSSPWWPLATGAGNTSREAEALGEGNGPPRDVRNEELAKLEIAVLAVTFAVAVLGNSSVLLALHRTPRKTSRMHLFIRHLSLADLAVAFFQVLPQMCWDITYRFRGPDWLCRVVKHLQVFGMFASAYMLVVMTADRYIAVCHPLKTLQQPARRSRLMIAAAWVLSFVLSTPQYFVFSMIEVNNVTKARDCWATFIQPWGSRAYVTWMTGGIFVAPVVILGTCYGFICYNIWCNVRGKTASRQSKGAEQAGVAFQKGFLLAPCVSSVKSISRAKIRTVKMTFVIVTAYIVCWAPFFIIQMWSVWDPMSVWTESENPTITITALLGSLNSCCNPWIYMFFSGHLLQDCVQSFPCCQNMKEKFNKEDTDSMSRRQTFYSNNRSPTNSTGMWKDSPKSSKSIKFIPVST
row,Compound,Ki [nM]
1,"CC(=O)N(C)CCn1cc(C(=O)N2CCN(c3ccccc3F)CC2)c2ccc(Cl)cc21 [Example 219, N-(2-{6-Chloro-3-[4-(2-fluoro-phenyl)-piperazine-1-carbonyl]-indol-1-yl}-ethyl)-N-methyl-acetamide]",15
2,"COc1ccccc1C1CCN(C(=O)c2cn(Cc3cc(F)cc(F)c3)c3cc(Cl)ccc23)CC1 [Example 56, [6-Chloro-1-(3,5-difluoro-benzyl)-1H-indol-3-yl]-[4-(2-methoxy-phenyl)-piperidin-1-yl]-methanone]",2
3,Cc1c(C(=O)N2CCC(c3ccccc3)CC2)c2ccccc2n1Cc1ccccc1 [Example 24],10
4,"CN1CCN(C(=O)Cn2cc(C(=O)N3CCC(c4cccc5c4OCC5)CC3)c3ccc(Cl)cc32)CC1 [Example 71, 2-{6-Chloro-3-[4-(2,3-dihydro-benzofuran-7-yl)-piperidine-1-carbonyl]-indol-1-yl}-1-(4-methyl-piperazin-1-yl)-ethanone]",5
5,COc1ccccc1C1=CCN(C(=O)c2c(C)n(Cc3ccccc3)c3ccccc23)CC1 [Example 3],14
6,COc1cccc(OC)c1C1CCN(C(=O)c2cn(Cc3cnccn3)c3cc(Cl)ccc23)CC1 [Example 50],4
7,"COc1ccccc1N1CCN(C(=O)c2cn(CC(=O)N3CCN(C)CC3)c3cc(Cl)ccc23)CC1 [Example 153, 2-{6-Chloro-3-[4-(2-methoxy-phenyl)-piperazine-1-carbonyl]-indol-1-yl}-1-(4-methyl-piperazin-1-yl)-ethanone]",23

# Same assay, conditions: displacement of 4 nM 3H-Vasopressin, HEK293 cell membranes, Ki by Cheng-Prussoff from IC50; read-out: Ki
row,Compound,Ki [nM]
1,"COc1cccc(OC)c1C1CCN(C(=O)c2cn(CC(=O)c3ccccn3)c3cc(Cl)ccc23)CC1 [Example 44, 2-{6-Chloro-3-[4-(2,6-dimethoxy-phenyl)-piperidine-1-carbonyl]-indol-1-yl}-1-pyridin-2-yl-ethanone]",3
2,"CC(C)Oc1ccccc1C1CCN(C(=O)c2cn(CC(=O)N(C)C)c3cc(Cl)ccc23)CC1 [Example 66, 2-{6-Chloro-3-[4-(2-isopropoxy-phenyl)-piperidine-1-carbonyl]-indol-1-yl}-N,N-dimethyl-acetamide]",4
3,"CNC(=O)Cn1cc(C(=O)N2CCC(c3ccccc3OC)CC2)c2ccc(Cl)cc21 [Example 106, 2-{6-Chloro-3-[4-(2-methoxy-phenyl)-piperidine-1-carbonyl]-indol-1-yl}-N-methyl-acetamide]",5
4,"CN(C)CCn1cc(C(=O)N2CCN(c3ccccc3F)CC2)c2ccc(Cl)cc21 [Example 171, [6-Chloro-1-(2-dimethylamino-ethyl)-1H-indol-3-yl]-[4-(2-fluoro-phenyl)-piperazin-1-yl]-methanone]",7
5,"CN1CCN(C(=O)Cn2cc(C(=O)N3CCC(c4ccccc4C(F)(F)F)CC3)c3ccc(Cl)cc32)CC1 [Example 97, 2-{6-Chloro-3-[4-(2-trifluoromethyl-phenyl)-piperidine-1-carbonyl]-indol-1-yl}-1-(4-methyl-piperazin-1-yl)-ethanone]",6
6,"COc1cccc(OC)c1C1CCN(C(=O)c2cn(CC(=O)N3CCNCC3)c3cc(Cl)ccc23)CC1 [Example 69, 2-{6-Chloro-3-[4-(2,6-dimethoxy-phenyl)-piperidine-1-carbonyl]-indol-1-yl}-1-piperazin-1-yl-ethanone]",6
7,"CN1CCN(C(=O)Cn2cc(C(=O)N3CCC(c4ccccc4F)CC3)c3ccc(Cl)cc32)CC1 [Example 117, 2-{6-Chloro-3-[4-(2-fluoro-phenyl)-piperidine-1-carbonyl]-indol-1-yl}-1-(4-methyl-piperazin-1-yl)-ethanone]",6
8,"COc1cccc(OC)c1C1CCN(C(=O)c2cn(Cc3cccnc3)c3cc(Cl)ccc23)CC1 [Example 46, (6-Chloro-1-pyridin-3-ylmethyl-1H-indol-3-yl)-[4-(2,6-dimethoxy-phenyl)-piperidin-1-yl]-methanone]",7
9,"CNC(=O)Cn1cc(C(=O)N2CCN(c3ncccc3I)CC2)c2ccc(Cl)cc21 [Example 225, 2-{6-Chloro-3-[4-(3-iodo-pyridin-2-yl)-piperazine-1-carbonyl]-indol-1-yl}-N-methyl-acetamide]",12
10,"CNC(=O)Cn1cc(C(=O)N2CCC(c3ccccc3OC(F)(F)F)CC2)c2ccc(Cl)cc21 [Example 90, 2-{6-Chloro-3-[4-(2-trifluoromethoxy-phenyl)-piperidine-1-carbonyl]-indol-1-yl}-N-methyl-acetamide]",8
11,"COc1cccc(OC)c1C1CCN(C(=O)c2cn(CC(=O)OC(C)(C)C)c3cc(Cl)ccc23)CC1 [Example 49, {6-Chloro-3-[4-(2,6-dimethoxy-phenyl)-piperidine-1-carbonyl]-indol-1-yl}-acetic acid tert-butyl ester]",3
12,"COc1cccc(OC)c1C1CCN(C(=O)c2c[nH]c3cc(Cl)ccc23)CC1 [Example 40, (6-Chloro-1H-indol-3-yl)-[4-(2,6-dimethoxy-phenyl)-piperidin-1-yl]-methanone]",8
13,"COc1cccc(OC)c1C1CCN(C(=O)c2cn(CC(=O)N(C)C)c3ccccc23)CC1 [Example 62, 2-{3-[4-(2,6-Dimethoxy-phenyl)-piperidine-1-carbonyl]-indol-1-yl}-N,N-dimethyl-acetamide]",11
14,"COc1cccc(OC)c1C1CCN(C(=O)c2cn(CCN(C)C)c3cc(Cl)ccc23)CC1 [Example 52, [6-Chloro-1-(2-dimethylamino-ethyl)-1H-indol-3-yl]-[4-(2,6-dimethoxy-phenyl)-piperidin-1-yl]-methanone]",4
15,"CNC(=O)Cn1cc(C(=O)N2CCN(c3ccc(F)cc3F)CC2)c2ccc(Cl)cc21 [Example 190, 2-{6-Chloro-3-[4-(2,4-difluoro-phenyl)-piperazine-1-carbonyl]-indol-1-yl}-N-methyl-acetamide]",19
16,"CNC(=O)Cn1cc(C(=O)N2CCC(c3ccccc3F)CC2)c2ccc(Cl)cc21 [Example 111, 2-{6-Chloro-3-[4-(2-fluoro-phenyl)-piperidine-1-carbonyl]-indol-1-yl}-N-methyl-acetamide]",7
17,"CN1CCN(C(=O)Cn2cc(C(=O)N3CCC(c4ccccc4OC(F)(F)F)CC3)c3ccc(Cl)cc32)CC1 [Example 88, 2-{6-Chloro-3-[4-(2-trifluoromethoxy-phenyl)-piperidine-1-carbonyl]-indol-1-yl}-1-(4-methyl-piperazin-1-yl)-ethanone]",7
18,"CNC(=O)Cn1cc(C(=O)N2CCN(c3ccccc3OC)CC2)c2ccc(Cl)cc21 [Example 162, 2-{6-Chloro-3-[4-(2-methoxy-phenyl)-piperazine-1-carbonyl]-indol-1-yl}-N-methyl-acetamide]",27
19,"COc1ccccc1C1CCN(C(=O)c2cn(CCN(C)C)c3cc(Cl)ccc23)CC1 [Example 108, [6-Chloro-1-(2-dimethylamino-ethyl)-1H-indol-3-yl]-[4-(2-methoxy-phenyl)-piperidin-1-yl]-methanone]",8
20,"CNC(=O)Cn1cc(C(=O)N2CCC(c3ccccc3C(F)(F)F)CC2)c2ccc(Cl)cc21 [Example 96, 2-{6-Chloro-3-[4-(2-trifluoromethyl-phenyl)-piperidine-1-carbonyl]-indol-1-yl}-N-methyl-acetamide]",11
21,"COc1ccccc1C1CCN(C(=O)c2cn(CC(=O)OC(C)(C)C)c3cc(Cl)ccc23)CC1 [Example 59, {6-Chloro-3-[4-(2-methoxy-phenyl)-piperidine-1-carbonyl]-indol-1-yl}-acetic acid tert-butyl ester]",2
22,"COc1cccc(OC)c1C1CCN(C(=O)c2cn(CC(=O)N(C)C)c3cc(Cl)ccc23)CC1 [Example 43, 2-{6-Chloro-3-[4-(2,6-dimethoxy-phenyl)-piperidine-1-carbonyl]-indol-1-yl}-N,N-dimethyl-acetamide]",2
23,"CN(C)C(=O)Cn1cc(C(=O)N2CCN(c3ncccc3C(F)(F)F)CC2)c2ccc(Cl)cc21 [Example 211, 2-{6-Chloro-3-[4-(3-trifluoromethyl-pyridin-2-yl)-piperazine-1-carbonyl]-indol-1-yl}-N,N-dimethyl-acetamide]",13
24,"COc1cccc(OC)c1C1CCN(C(=O)c2cn(Cc3ccncc3)c3cc(Cl)ccc23)CC1 [Example 45, (6-Chloro-1-pyridin-4-ylmethyl-1H-indol-3-yl)-[4-(2,6-dimethoxy-phenyl)-piperidin-1-yl]-methanone]",7
25,"CN(C)CCn1cc(C(=O)N2CCC(c3ccccc3F)CC2)c2ccc(Cl)cc21 [Example 115, [6-Chloro-1-(2-dimethylamino-ethyl)-1H-indol-3-yl]-[4-(2-fluoro-phenyl)-piperidin-1-yl]-methanone]",11
